Laboratory results as given in US20250228831A1, “METHOD TO PREVENT AND TREAT GLAUCOMA BY CALCIUM CHANNEL BLOCKERS, ANGIOTENSIN CONVERTING ENZYME INHIBITORS, AND ANGIOTENSIN RECEPTOR BLOCKERS” (priority 2022, published 2025).

Assays:
Type in all cases: in vivo, human
glaucoma [1] = assay: Prevention of recurrence in a patient successfully treated for glaucoma, one eye treated and the other left untreated; conditions: untreated eye shows signs of recurrence
Description: A composition comprising the ACE inhibitor enalapril is directly applied to the vitreous surface of one eye while the other eye is left untreated.
A composition comprising the angiotensin receptor blocker losartan is directly applied to the vitreous surface of one eye while the other eye is left untreated.
A composition comprising the ACE inhibitor enalapril is applied to the eye by intravitreal or intraocular injection while the other eye is left untreated.
A composition comprising the angiotensin receptor blocker losartan is applied to the eye by intravitreal or intraocular injection while the other eye is left untreated.

glaucoma [2] = assay: Treatment of a patient diagnosed with glaucoma, one eye treated and the other left untreated
Description: (§1) A patient is diagnosed with glaucoma.
A patient is diagnosed with glaucoma. A composition comprising the ACE inhibitor enalapril is directly applied to the vitreous surface of one eye while the other eye is left untreated.
A patient is diagnosed with glaucoma. A composition comprising the angiotensin receptor blocker losartan is directly applied to the vitreous surface of one eye while the other eye is left untreated.
as §1
A patient is diagnosed with glaucoma. A composition comprising the ACE inhibitor enalapril is applied to the eye by intravitreal or intraocular injection while the other eye is left untreated.
A patient is diagnosed with glaucoma. A composition comprising the angiotensin receptor blocker losartan is applied to the eye by intravitreal or intraocular injection while the other eye is left untreated.

primary form of glaucoma = assay: Ramiprilat formulation given to the eye of a patient with a primary form of glaucoma
Protocol: In this example, a patient with a primary form of glaucoma is administered a topical formulation comprising ramiprilat to the eye. […] The patient's primary form of glaucoma is therefore treated by the […] formulation.
In this example, a patient with a primary form of glaucoma is administered an injectable formulation comprising ramiprilat to the posterior chamber of the eye. […] The patient's primary form of glaucoma is therefore treated by the […] formulation.

[3] = composition applied by intravitreal or intraocular injection
[4] = composition directly applied to the vitreous surface of one eye
[5] = injectable formulation to the posterior chamber of the eye

| Compound | recurrence of glaucoma, treated eye versus untreated eye (glaucoma [1]; [3]) | recurrence of glaucoma, treated eye versus untreated eye (glaucoma [1]; [4]) | symptoms of glaucoma, treated eye versus untreated eye (glaucoma [2]; [3]) | symptoms of glaucoma, treated eye versus untreated eye (glaucoma [2]; [4]) | capillary networks and capillary blood supply to the eye (primary form of glaucoma; [5]) | intraocular pressure (primary form of glaucoma; [5]) | optic nerve (primary form of glaucoma; [5]) | capillary networks and capillary blood supply to the eye (primary form of glaucoma; topical formulation to the eye) | intraocular pressure (primary form of glaucoma; topical formulation to the eye) | optic nerve (primary form of glaucoma; topical formulation to the eye) |
| --- | --- | --- | --- | --- | --- | --- | --- | --- | --- | --- |
| CCCCc1nc(Cl)c(CO)n1Cc1ccc(-c2ccccc2-c2nn[nH]n2)cc1 [losartan] | not develop glaucoma | not develop glaucoma | reduced symptoms of glaucoma | reduced symptoms of glaucoma | – | – | – | – | – | – |
| Ramiprilat | – | – | – | – | grows capillary networks and increases the capillary blood supply | reduction in intraocular pressure | repair to the optic nerve | grows capillary networks and increases the capillary blood supply | reduction in intraocular pressure | repair to the optic nerve |
| CCOC(=O)[C@H](CCc1ccccc1)N[C@@H](C)C(=O)N1CCC[C@H]1C(=O)O [enalapril] | not develop glaucoma | not develop glaucoma | reduced symptoms of glaucoma | reduced symptoms of glaucoma | – | – | – | – | – | – |
